Reference: patent US20260325417A1, “TOPICAL SKIN COMPOSITION CONTAINING 1,3-PROPANEDIOL AS ACTIVE INGREDIENT FOR MAINTAINING MICROBIOME BALANCE IN SKIN” (ACTIVON CO.,LTD., priority 2022, published 2026)

Tests used:
S. epidermidis = experiment: Comparison of diol compounds, growth of beneficial bacteria; type: cell-based, Staphylococcus epidermidis; design: key to Effect on the growth of beneficial bacteria (S. epidermidis): ++: Growth promotion; +: No effect; −: Growth inhibition; − −: 50% or more growth inhibition
Description: (§1) FIG. 4 illustrates the results of a comparative analysis of the effects of diol compounds, specifically 1,3-propanediol, 2-methyl-1,3-propanediol, 1,3-butanediol, 2,3-butanediol, 1,2-pentanediol, and 1,2-hexanediol on the growth of harmful bacteria (upper graph) and beneficial bacteria (lower graph). FIG. 4A: 1,3-propanediol, FIG. 4B: 2-methyl-1,3-propanediol; FIG. 4C: 1,3-butanediol; FIG. 4D: 2,3-butanediol; FIG. 4E: 1,2-pentanediol; FIG. 4F: 1,2-Hexanediol.
(§2) • 1) Staphylococcus epidermidis ATCC 12228 and Staphylococcus aureus ATCC 6538 strains were obtained from ThermoFisher Scientific and cultured in tryptic soy broth (culture conditions: 32° C. for 18 hours). After culturing, they were diluted with 0.85% NaCl to adjust the absorbance (600 nm) to 0.5-0.6. • 2) 1,3-propanediol was obtained from Sigma-Aldrich. • 3) 2-methyl-1,3-propanediol, 1,3-butanediol, 2,3-butanediol, 1,2-pentanediol, and 1,2-hexanediol were all obtained from Sigma-Aldrich. • 4) Fructan was obtained from Sigma-Aldrich. • 5) Yeast extract was obtained from Sigma-Aldrich.

S. aureus = experiment: Comparison of diol compounds, growth of harmful bacteria; type: cell-based, Staphylococcus aureus
Description: as §1, §2

CCCCC(O)CO (stereo not drawn) [1,2-hexanediol]
Effect on the growth of beneficial bacteria (S. epidermidis) (S. epidermidis; diol compound 0.1 wt %): ++ | Effect on the growth of beneficial bacteria (S. epidermidis) (S. epidermidis; diol compound 1 wt %): − | Effect on the growth of beneficial bacteria (S. epidermidis) (S. epidermidis; diol compound 5 wt %): − − (50% or more growth inhibition) | Effect on the growth of beneficial bacteria (S. epidermidis) (S. epidermidis; diol compound 10 wt %): − − (50% or more growth inhibition) | Effect on the growth of beneficial bacteria (S. epidermidis) (S. epidermidis; diol compound 20 wt %): − − (50% or more growth inhibition) | Effect on the growth of harmful bacteria (S. aureus) (S. aureus; diol compound 0.1 wt %): + | Effect on the growth of harmful bacteria (S. aureus) (S. aureus; diol compound 1 wt %): ++ | Effect on the growth of harmful bacteria (S. aureus) (S. aureus; diol compound 5 wt %): +++ (50% or more inhibition) | Effect on the growth of harmful bacteria (S. aureus) (S. aureus; diol compound 10 wt %): +++ (50% or more inhibition) | Effect on the growth of harmful bacteria (S. aureus) (S. aureus; diol compound 20 wt %): +++ (50% or more inhibition)

CCCC(O)CO (stereo not drawn) [1,2-pentanediol]
Effect on the growth of beneficial bacteria (S. epidermidis) (S. epidermidis; diol compound 0.1 wt %): ++ | Effect on the growth of beneficial bacteria (S. epidermidis) (S. epidermidis; diol compound 1 wt %): − | Effect on the growth of beneficial bacteria (S. epidermidis) (S. epidermidis; diol compound 5 wt %): − − (50% or more growth inhibition) | Effect on the growth of beneficial bacteria (S. epidermidis) (S. epidermidis; diol compound 10 wt %): − − (50% or more growth inhibition) | Effect on the growth of beneficial bacteria (S. epidermidis) (S. epidermidis; diol compound 20 wt %): − − (50% or more growth inhibition) | Effect on the growth of harmful bacteria (S. aureus) (S. aureus; diol compound 0.1 wt %): + | Effect on the growth of harmful bacteria (S. aureus) (S. aureus; diol compound 1 wt %): + | Effect on the growth of harmful bacteria (S. aureus) (S. aureus; diol compound 5 wt %): +++ (50% or more inhibition) | Effect on the growth of harmful bacteria (S. aureus) (S. aureus; diol compound 10 wt %): +++ (50% or more inhibition) | Effect on the growth of harmful bacteria (S. aureus) (S. aureus; diol compound 20 wt %): +++ (50% or more inhibition)

CC(O)CCO (stereo not drawn) [1,3-butanediol]
Effect on the growth of beneficial bacteria (S. epidermidis) (S. epidermidis; diol compound 0.1 wt %): ++ | Effect on the growth of beneficial bacteria (S. epidermidis) (S. epidermidis; diol compound 1 wt %): − | Effect on the growth of beneficial bacteria (S. epidermidis) (S. epidermidis; diol compound 5 wt %): − | Effect on the growth of beneficial bacteria (S. epidermidis) (S. epidermidis; diol compound 10 wt %): − − (50% or more growth inhibition) | Effect on the growth of beneficial bacteria (S. epidermidis) (S. epidermidis; diol compound 20 wt %): − − (50% or more growth inhibition) | Effect on the growth of harmful bacteria (S. aureus) (S. aureus; diol compound 0.1 wt %): + | Effect on the growth of harmful bacteria (S. aureus) (S. aureus; diol compound 1 wt %): + | Effect on the growth of harmful bacteria (S. aureus) (S. aureus; diol compound 5 wt %): ++ | Effect on the growth of harmful bacteria (S. aureus) (S. aureus; diol compound 10 wt %): ++ | Effect on the growth of harmful bacteria (S. aureus) (S. aureus; diol compound 20 wt %): +++ (50% or more inhibition)
